The values below come from US20250127906A1, “SMALL-MOLECULE DEGRADERS OF CDK8 AND CDK19” (University of South Carolina, priority 2021, published 2025).

Marks after values point to notes of the source that are not given here.

One experiment concerns the target CDK8 (Homo sapiens, UniProt P49336). In words: CDK8 degradation in HEK-293 cells (Western blot, normalized by GAPDH). Format: cell-based. More on the design: endogenous in cells; host or cells: HEK-293. As to conditions: for % CDK8 remaining: 24 hours. The protocol: Table 1 presents the structures of 35 different chimeras that have been synthesized, together with their effects (at 1 μM or 0.3 μM concentrations) on CDK8 degradation in HEK-293 cells. The synthesis schemes of all the compounds are described below. CDK8 degradation was measured by Western blot analysis of RIPA lysates of HEK-293cells treated with or without the test compound for 24 hours, using antibodies against CDK8 (Santa Cruz sc-1521) and housekeeping protein GAPDH (Santa Cruz sc-32233) (loading control) Protein bands on immunoblotted PVDF membranes were visualized with Western Lighting Plus ECL detection reagent (Perkin Elmer, Waltham, MA, USA) using ChemiDoc Touch™ (Bio-Rad). Image processing and densitometry analysis were performed using ImageLab software (Bio-Rad) to quantify the CDK8 protein levels (normalized by GAPDH) and evaluate the effects of compound treatment.
(§1) FIGS. 2F and 2G show the effects of different concentrations of potent Senexin C- and BI-1347-based PROTACs on CDK8 and CDK19 degradation in HEK-293cells. Based on these assays, we calculated DC50 values that correspond to PROTAC concentrations inducing degradation of CDK8 and CDK19 to the half of protein level in untreated cells. The corresponding CDK8 DC50 values were 46 nM for IA7843, 6.6 nM for IA7882 and 2.8 nM for IA7886, and CDK19 DC50 values were 1 μM for IA7843, 25 nM for IA7882 and 10 nM for IA7886.
On the technique in general: Immunoblotting shows a protein as a band on a membrane.

Another experiment concerns the target CDK19 (Homo sapiens, UniProt Q9BWU1). In words: CDK19 degradation in HEK-293 cells (Western blot). Format: cell-based. More on the design: PROTACs on CDK8 and CDK19 degradation in HEK-293cells; endogenous in cells; host or cells: HEK-293. The note with it: concentration degrading CDK19 to half of level in untreated cells.
Description: Furthermore, the degradation of both CDK8 and CDK19 by the PROTACs is also seen to decrease the levels of their binding partner cyclin C (CCNC) (FIG. 2B, D, E), which is known to be protected from proteolytic degradation by its interaction with CDK8 (Barette et al., 2001).
as §1

The subject of a further experiment is RPMI 8226 cells. Briefly: Concentration dependence of RPMI 8226 growth inhibition. Format: cell-based. As to conditions: RPMI 8226, 4-day growth inhibition.
For the next experiment, the system named is CDK8/19-regulated genes. Briefly: QPCR of CDK8/19-regulated genes in HEK-293 wild-type and CDK8/19 double-knockout cells. The note with it: for effect on expression of CDK8/19-regulated genes: 200 nM, 3-day treatment. Format: cell-based, human. On the procedure:
CDK8/19 act as transcriptional regulators, and therefore we tested the effects of 3-day treatment with 200 nM PROTAC IA7886 along with 200 nM CDK8/19 kinase inhibitor BI-1347 on a series of CDK8/19-regulated genes, using QPCR.
We have also compared the stability of transcriptional changes induced by a PROTAC and by a kinase inhibitor. In the experiment shown in FIG. 10A, HEK-293 cells were treated with 200 nM of BI-1347 or IA7886 for 3 days, and then the inhibitors were washed off and the restoration of transcriptional changes was monitored 24 hrs and 48 hrs after wash-off.

The subject of the next experiment is MV4-11 cells. In words: Long-term growth of MV4-11 cells under continuous treatment. It is filed as cell-based, human. As to conditions: MV4-11, 300 nM continuous. The protocol: (§2) The anti-proliferative effects of a PROTAC and a kinase inhibitor were compared in leukemia cell lines. In the long-term treatment experiment shown in FIG. 11A, Jurkat cells (0.1 million cells) were continuously treated with vehicle control (0.1% DMSO), 300 nM BI-1347 or 300 nM IA7886 for 53 days (each condition in biological triplicates). Every 7-8 days, live cells were counted using BioRAD TC20 Automated Cell Counter with trypan blue staining: 0.1 million live cells were passaged to a new T25 flask to propagate under the same treatment conditions. The survival fraction was calculated by dividing the accumulated number of drug-treated cells with the accumulated number of vehicle-treated cells. […] This sustained inhibition property of PROTAC was also observed in MV4-11, a leukemia cell line highly sensitive to CDK8/19 kinase inhibitors.

Experiment [1] deals with Jurkat cells. In words: Long-term growth of Jurkat cells under continuous treatment. As to conditions: 300 nM continuous. Format: cell-based, human. On the procedure: as §2
Experiment [2] concerns Jurkat cells. In words: Wash-off growth study in Jurkat cells. Format: cell-based, human. The note with it: pre-treated 200 nM for 8 days, then drug-free vs drug-containing media for 8 days. On the procedure: We also compared the stability of short-term growth inhibition induced by a PROTAC and a kinase inhibitor in a wash-off study in Jurkat cells. In the experiment shown in FIG. 11C, Jurkat cells were pre-treated with 200 nM BI-1347 or IA7886 for 8 days before removal of drug-containing media and further cultured in either drug-containing (200 nM) or drug-free media for 8 days before counting cell numbers. Removal of BI-1347 led to 7.1 fold increase of the cell number while removal of IA7886 increased the cell number only 1.8 fold (FIG. 11C).

The test system of the next experiment is KMS-12-BM cells. In words: Concentration dependence of KMS-12-BM growth inhibition (CCK-8 assay). It is filed as cell-based. The note with it: Homo sapiens, 96 h, over 4 days. The protocol:
Concentration dependence of KMS-12-BM growth inhibition over 4 days was determined for BI-1347 CDK8/19 kinase inhibitor and IA7886 PROTAC using CCK-8 assay (FIG. 13B).
On the technique in general: Formazan colour is commonly taken as a measure of viable cells.

A further experiment relates to SK-MM-2 cells. In words: SK-MM-2 multiple myeloma cell growth over 20 days continuous treatment. The note with it: BI1347 200 nM, Senexin C 1 μM, IA7886 200 nM, IA7843 1 μM. Format: cell-based. On the procedure: The following CDK8/19 kinase inhibitors were tested for their effects on MM cell lines over 20 days continuous treatment: CDK8/19 kinase inhibitors BI1347 (200 nM) and Senexin C (1 μM), BI1347-derived PROTAC IA7886 (200 nM) and Senexin C-derived PROTAC IA7843 (1 μM). 1-4 million cells were treated with vehicle control (0.1% DMSO), or CDK8/19 kinase inhibitors or PROTACs for 20 days. Every 4 days, cells were counted using BioRAD TC20 Automated Cell Counter with trypan blue staining, and the same number of cells were passaged to a new T25 flask to propagate under the same treatment conditions.

Chain of CDK8 (P49336 whole entry): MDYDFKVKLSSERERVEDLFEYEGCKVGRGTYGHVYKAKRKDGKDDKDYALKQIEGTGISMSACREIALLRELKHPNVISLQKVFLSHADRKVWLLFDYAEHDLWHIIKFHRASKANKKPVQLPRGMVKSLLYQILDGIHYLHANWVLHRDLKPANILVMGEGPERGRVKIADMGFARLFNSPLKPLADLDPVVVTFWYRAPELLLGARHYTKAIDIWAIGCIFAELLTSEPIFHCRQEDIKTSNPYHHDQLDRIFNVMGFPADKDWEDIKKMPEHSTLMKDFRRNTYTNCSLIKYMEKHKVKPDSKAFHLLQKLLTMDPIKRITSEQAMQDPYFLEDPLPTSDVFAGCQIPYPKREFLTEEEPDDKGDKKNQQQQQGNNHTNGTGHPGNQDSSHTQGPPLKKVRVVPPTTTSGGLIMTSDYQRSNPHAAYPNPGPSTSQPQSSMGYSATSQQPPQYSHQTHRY
Chain of CDK8 (P24863 whole entry partner): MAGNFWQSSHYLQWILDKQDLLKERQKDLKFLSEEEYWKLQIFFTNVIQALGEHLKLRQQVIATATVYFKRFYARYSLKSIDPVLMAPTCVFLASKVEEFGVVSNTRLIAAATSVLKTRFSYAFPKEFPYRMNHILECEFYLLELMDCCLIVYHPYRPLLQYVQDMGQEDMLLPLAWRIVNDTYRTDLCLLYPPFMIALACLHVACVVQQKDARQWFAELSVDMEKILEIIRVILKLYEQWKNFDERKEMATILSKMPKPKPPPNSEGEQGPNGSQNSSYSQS
Chain of CDK19 (Q9BWU1 whole entry): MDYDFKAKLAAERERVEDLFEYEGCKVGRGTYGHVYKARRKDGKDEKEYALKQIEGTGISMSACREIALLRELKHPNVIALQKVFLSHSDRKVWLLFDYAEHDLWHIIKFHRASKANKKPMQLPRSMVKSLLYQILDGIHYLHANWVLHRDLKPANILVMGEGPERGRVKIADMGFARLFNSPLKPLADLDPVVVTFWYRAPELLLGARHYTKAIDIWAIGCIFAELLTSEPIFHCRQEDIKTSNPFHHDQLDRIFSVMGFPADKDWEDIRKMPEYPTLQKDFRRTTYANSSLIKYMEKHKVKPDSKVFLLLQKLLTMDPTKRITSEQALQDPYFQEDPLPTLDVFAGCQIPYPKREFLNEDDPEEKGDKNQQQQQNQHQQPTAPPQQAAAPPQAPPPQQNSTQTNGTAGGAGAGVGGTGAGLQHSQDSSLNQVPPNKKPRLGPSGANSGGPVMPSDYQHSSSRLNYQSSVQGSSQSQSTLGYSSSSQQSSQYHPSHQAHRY
Chain of CDK19 (P24863 whole entry partner): as the sequence (P24863 whole entry partner) above

In general, DC50 refers to the midpoint of the concentration-degradation curve. As for `N#Cc1ccc2nccc(NCCc3ccc4cc(C(=O)N5CCN(C(=O)CCCCCCCCCCNC(=O)CCCNc6cccc7c6C(=O)N(C6CCC(=O)NC6=O)C7=O)CC5)ccc4c3)c2c1` (centres unmarked) [IA7843], the “% CDK8 remaining” value on CDK8 (HEK-293 cells, tested at 1 μM) is reported as 13%. Further, the 50% degradation concentration (DC50) was determined as 46 nM on CDK8 (HEK-293 cells, concentration degrading CDK8 to half of level in untreated cells) and 1000 nM at CDK19.

As usually defined, the IC50 is the concentration that gives 50% inhibition. A lower IC50 goes with inhibition by little substance. In turn, `CN(C)C(=O)c1ccc(N2CCCN(c3ccnc4sc(C(N)=O)c(N)c34)CC2)cc1` [SNX631-6, reference compound] gave an IC50 in the experiment with RPMI 8226 cells greater than 1000 nM.

Consider `CN(C)C(=O)Cn1cc(-c2ccc(-c3cncc4ccccc34)cc2)cn1` [BI-1347, reference compound], for which the “effect on expression of CDK8/19-regulated genes” value in the experiment on CDK8/19-regulated genes (CDK8/19 double-knockout (dKO) 293 cells) is recorded as “had no effect in dKO cells”; in the experiment with CDK8/19-regulated genes (wild-type HEK-293 cells) it was “had similar effects on the expression of the tested genes”. In addition, the “stability of transcriptional changes after wash-off” value with CDK8/19-regulated genes (HEK-293, 200 nM for 3 days, then 24 hrs and 48 hrs after wash-off) is given as “largely maintained 24 hrs after wash-off but mostly disappeared 48 hrs after wash-off”. In the experiment with MV4-11 cells, the “growth inhibition over 60 days” value was “strongly inhibited MV4-11 cells for the first 4 passages (33 days) but after that the cells became fully resistant to the kinase inhibitor”. For the same molecule, in the experiment on Jurkat cells [1], the “growth inhibition, first two passages (14 days)” value was “had a stronger growth inhibition effect than the PROTAC IA7886”. Also, the “growth rates in later passages” value in the experiment with Jurkat cells [1] (up to 53 days) was “growth rates of BI-1347 treated cells were increasing”. Besides, the “increase of the cell number upon removal of drug” value in the experiment with Jurkat cells [2] stood at 7.1 fold. This molecule registered an IC50 with KMS-12-BM cells greater than 1000 nM. Also, the “growth inhibition over 20 days, order of efficacy” value with SK-MM-2 cells is “BI1347<IA7886<Senexin C<IA7843”.

In the case of `CN1CCN(C(=O)c2ccc3cc(CCNc4ccnc5ccc(C#N)cc45)ccc3c2)CC1` [Senexin C, reference compound], the “induction of CDK8 degradation by single agents” value at CDK8 (HEK-293, HP8580 200 nM and 1 μM, pomalidomide 5 μM, Senexin C 5 μM) was “but not pomalidomide or Senexin C induced CDK8 degradation”. Also, the “growth inhibition over 20 days, order of efficacy” value with SK-MM-2 cells was “BI1347<IA7886<Senexin C<IA7843”.

In the case of `N#Cc1ccc2nccc(NCCc3ccc4cc(C(=O)N5CCN(C(=O)CCNC(=O)CCOCCOCCOCCNc6cccc7c6C(=O)N(C6CCC(=O)NC6=O)C7=O)CC5)ccc4c3)c2c1` (centres unmarked) [IA7819, N-[3-[4-[6-[2-[(6-cyano-4-quinolyl)amino]ethyl]naphthalene-2-carbonyl]piperazin-1-yl]-3-oxo-propyl]-3-[2-[2-[2-[[2-(2,6-dioxo-3-piperidyl)-1,3-dioxo-isoindolin-4-yl]amino]ethoxy]ethoxy]ethoxy]propanamide], the “% CDK8 remaining” value at CDK8 (HEK-293 cells, tested at 1 μM) came to 66%.

In the case of `N#Cc1ccc2nccc(NCCc3ccc4cc(C(=O)N5CCN(C(=O)CCOCCOCCNc6cccc7c6C(=O)N(C6CCC(=O)NC6=O)C7=O)CC5)ccc4c3)c2c1` (centres unmarked) [HV5958, 4-[2-[6-[4-[3-[2-[2-[[2-(2,6-dioxo-3-piperidyl)-1,3-dioxo-isoindolin-4-yl]amino]ethoxy]ethoxy]propanoyl]piperazine-1-carbonyl]-2-naphthyl]ethylamino]quinoline-6-carbonitrile], the “% CDK8 remaining” value on CDK8 (HEK-293 cells, tested at 1 μM) is listed as 27%.

`CN(CCCNC(=O)CCOCCOCCOCCOCCNc1cccc2c1C(=O)N(C1CCC(=O)NC1=O)C2=O)C(=O)c1ccc2cc(CCNc3ccnc4ccc(C#N)cc34)ccc2c1` (centres unmarked) [HP8581, 6-[2-[(6-cyano-4-quinolyl)amino]ethyl]-N-[3-[3-[2-[2-[2-[2-[[2-(2,6-dioxo-3-piperidyl)-1,3-dioxo-isoindolin-4-yl]amino]ethoxy]ethoxy]ethoxy]ethoxy]propanoylamino]propyl]-N-methyl-naphthalene-2-carboxamide]: the “% CDK8 remaining” value at CDK8 (HEK-293 cells, tested at 1 μM) came out at 36%.

As for `O=C1CCC(N2C(=O)c3cccc(NCCOCCOCCOCCC(=O)N4CCN(C(=O)Cn5cc(-c6ccc(-c7cncc8ccccc78)cc6)cn5)CC4)c3C2=O)C(=O)N1` (centres unmarked) [IA7894, 2-(2,6-dioxopiperidin-3-yl)-4-((2-(2-(2-(3-(4-(2-(4-(4-(isoquinolin-4-yl)phenyl)-1H-pyrazol-1-yl)acetyl)piperazin-1-yl)-3-oxopropoxy)ethoxy)ethoxy)ethyl)amino) isoindoline-1,3-dione], the “% CDK8 remaining” value at CDK8 (HEK-293 cells, tested at 0.3 μM (marked *)) stood at 51%*.

In the case of `CN(CCCNC(=O)CCOCCOCCOCCNc1cccc2c1C(=O)N(C1CCC(=O)NC1=O)C2=O)C(=O)c1ccc(N2CCCN(c3ccnc4sc(C(N)=O)c(N)c34)CC2)cc1` (centres unmarked) [HP8575, 3-amino-4-[4-[4-[3-[3-[2-[2-[2-[[2-(2,6-dioxo-3-piperidyl)-1,3-dioxo-isoindolin-4-yl]amino]ethoxy]ethoxy]ethoxy]propanoylamino]propyl-methyl-carbamoyl]phenyl]-1,4-diazepan-1-yl]thieno[2,3-b]pyridine-2-carboxamide], the “% CDK8 remaining” value on CDK8 (HEK-293 cells, tested at 1 μM) was found to be 77%.

Take `O=C(Cn1cc(-c2ccc(-c3cncc4ccccc34)cc2)cn1)NCCOCCOCCOCCOCCNc1cccc2c1C(=O)N(C1CCC(=O)NC1=O)C2=O` (centres unmarked) [IA7891, N-[2-[2-[2-[2-[2-[[2-(2,6-dioxo-3-piperidyl)-1,3-dioxo-isoindolin-4-yl]amino]ethoxy]ethoxy]ethoxy]ethoxy]ethyl]-2-[4-[4-(4-isoquinolyl)phenyl]pyrazol-1-yl]acetamide]: the “% CDK8 remaining” value at CDK8 (HEK-293 cells, tested at 1 μM) stood at 100%.

Consider `N#Cc1ccc2nccc(NCCc3ccc4cc(C(=O)N5CCN(C(=O)CCOCCOCCOCCOCCOCCNc6cccc7c6C(=O)N(C6CCC(=O)NC6=O)C7=O)CC5)ccc4c3)c2c1` (centres unmarked) [IA7812, 4-[2-[6-[4-[3-[2-[2-[2-[2-[2-[[2-(2,6-dioxo-3-piperidyl)-1,3-dioxo-isoindolin-4-yl]amino]ethoxy]ethoxy]ethoxy]ethoxy]ethoxy]propanoyl]piperazine-1-carbonyl]-2-naphthyl]ethylamino]quinoline-6-carbonitrile], for which, on CDK8 (HEK-293 cells, tested at 1 μM), the “% CDK8 remaining” value is listed as 29%.

Take `N#Cc1ccc2nccc(NCCc3ccc4cc(C(=O)N5CCN(CCCNC(=O)CCOCCOCCOCCOCCNc6cccc7c6C(=O)N(C6CCC(=O)NC6=O)C7=O)CC5)ccc4c3)c2c1` (centres unmarked) [HP8579]: the “% CDK8 remaining” value on CDK8 (HEK-293 cells, tested at 1 μM) turned out to be 29%.
